Assay results from patent publication US7365096B2, “Methods for selectively inhibiting Janus tyrosine kinase 3 (Jak3)” (Board of Regents, The University of Texas System, priority 2002, dated 2008).
Entries after “also recorded” stand apart in the source; their conditions may differ.

Columns and labels:
[1] = test system: rat T cell line (Nb2-11c); test: Proliferation of rat Nb2-11c T cells, IL-2 (Jak3) versus PRL (Jak2) stimulated; format: cell-based
Protocol: Cell culture and treatment. The rat T-cell line Nb2-11c, originally developed by Dr. Peter Gout (Vancouver, Canada), was grown in RPMI-1640 with 10% fetal calf serum (Intergen, cat. no. 1020-90), 2 mM L-glutamine, 5 mM HEPES, pH 7.3, and penicillin-streptomycin (50 IU/ml and 50 μg/ml, respectively), at 37° C./5% CO2. Freshly explanted normal human T lymphocytes purified by isocentrifugation (Ficoll®; EM Science, Gibbstown, N.J.) were phytohemagglutinin (PHA)-activated for 72 hours as previously described.^23 T lymphocytes were made quiescent by washing and incubating for 24 hours in RPMI-1640 medium containing 1% fetal calf serum before exposure to cytokines. […] The Mannich base 649641P (NC1153) was generously provided by Dr. Jonathan Dimmock College of Pharmacy, University of Saskatchewan, Saskatoon, Saskatchewan, Canada. All cells were then stimulated with 1 nM recombinant human IL-2 (Hoffman-LaRoche, Basel, Switzerland), IL4 or IL7 (PeproTech), or ovine prolactin (PRL) supplied by the National Hormone and Pituitary Program, National Institute of Diabetes, Digestive, and Kidney Disease (Bethesda, Md.), at 37° C. Cell pellets were frozen at −70° C.
Proliferation assays. Quiescent human primary T-cells, YT or rat Nb2-11c T-cells (5.0×10^4/well) were plated in flat-bottom, 96-well microtiter plates in 200 μl of quiescent media in the absence or presence of 1 nM IL-2, -4, -7 (PeproTech, Rock Hill, N.J.), or PRL. Next, cells were treated for 16 hours with the Mannich base drug and then pulsed for 4 hours with [^3H]-thymidine (0.5 μCi/200 μl) and harvested onto fiberglass filters. [^3H]-thymidine incorporation was analyzed by liquid scintillation counting as previously described,^23 or using standard techniques that are well known in the art.
The rat T cell line (Nb2-11c) was chosen because it responds to either PRL/Jak2 or IL-2/Jak3 stimulation.
FIG. 14B through FIG. 39B show the chemical formulas of various Mannich base compounds and others (shown as salts) that were screened for ability to inhibit proliferation in prolactin or IL2 stimulated T-cells. […]

PKC = test: Kinase substrate phosphorylation (FIG. 9C); format: biochemical; details: 10 or 50 μM
Protocol: Non-Jak3 mediated NfκB activation by TNF-α was not affected within the same treatment set (lower panel). […] Prolactin [PRL] (+) or (−) indicates whether the cells were stimulated with prolactin with Jak2 activation. Phosphotyrosine Western blots detect Jak2-Stat5 activation but no inhibition by 649641P (NC1153). […] 649641P (NC1153) was tested at 10 (open bars) or 50 μM (filled bars) to block growth factor tyrosine kinases (FGFR3 and PDGFRα), Src family tyrosine kinases (Src, Fyn, Lck, Yes, Zap70) or serine threonine kinases (PKC and PKA) phosphorylation of a substrate. The activity of the control is plotted as a dashed line.
In FIG. 9A, it can be seen that NC1153 inhibits Jak3 driven transcription factor-Stat5a/b in PHA activated T-cells treated with increasing concentrations of NC1153 in a dose dependent manner as measured via EMSA analysis (upper panel). The lane identified as “cold compete” contains unlabeled probe. However, non-Jak3 mediated NfκB activation (lower panel) by TNF-α was not affected within the same treatment set. […] Rat Nb2 cells were treated with increasing concentration of NC1153 and then stimulated with prolactin. Phosphotyrosine Western blots detect activation but no inhibition by NC1153. […] Activity of the control is plotted as a dashed line.

[2] = test system: IL2R-α, -β, and -γ chains; test: FACS analysis of IL2 receptor expression on PHA-activated T-cell blasts; format: cell-based, human; details: 50 μM overnight
Protocol: FIG. 7A is a bar graph showing that proliferation of PHA-activated human T cells was blocked by the indicated NCI agents following stimulation with IL-2. FIG. 7B is a FACS analysis of PHA-activated T-cell blasts that were treated without (heavy line) or with 50 μM NC1153 (light line) overnight and stained for IL2R-α, -β, and -γchains. FIG. 7C is a graph of cell growth inhibition over a range of NC1153 concentration in non-Jak3 expressing Jurkat cells (black diamonds) and in Jak3 containing PHA activated T-cells (open boxes). FIG. 7D is a graph of cell growth inhibition versus NC1153 concentration in T-cells stimulated by cytokines that utilize Jak3 and the common gamma chain.
Also shown (FIG. 7B) is a graph showing the FACS analysis of PHA-activated T-cell blasts that were treated without (heavy line) or with 50 μM NC1153 (light line) overnight and stained for IL2R-α, -β, and -γ chains. The dashed lines indicate cells pretreated with NC1153. […] Data are normalized as percent of vehicle control. NC1153 inhibits growth of cells by cytokines that utilize Jak3 and the common gamma chain (FIG. 7D). […] Thus, the inhibitory effects of NC1153 are not limited to cells stimulated only by IL-2. Instead, the entire family of cytokines which use Jak3 are blocked by NC1153.

[3] = Oral bioavailability estimated from allograft survival p.o. versus i.v.; details: ACI, rat, in vivo, 80 mg/kg p.o. gave similar survivals as 10 mg/kg i.v.
Protocol: To test the in vivo effects, recipients of kidney allografts were treated with 649641P (NC1153) for 7 days beginning immediately after transplantation. […] A mean survival time (MST) and SD was calculated for each group from 5-6 experiments.

LEW kidney allografts = test: Rat kidney allograft survival (LEW donors to ACI recipients); format: in vivo
[4] = 160 mg/kg NC1153 oral gavage 7 days, thereafter 3×/week up to 90 days

Which results are given for `CN(C)CC1CCCCCCCCCC(CN(C)C)C1=O` (mixture of isomers) [649641P (NC1153)]?
effectiveness for inhibiting Jak3- versus Jak2-dependent proliferation ([1]; 1 nM IL-2 vs 1 nM PRL, 0-100 μM, 16 hours): 3 fold; selective inhibition of IL-2/Jak3-dependent versus PRL/Jak2-dependent T-cell proliferation ([1]; IL-2 vs PRL stimulated): selectively inhibits γc/Jak3-dependent but not PRL/Jak2-dependent cell proliferation; inhibition of cell proliferation in response to IL-2, IL-4 and IL-7 ([1]; as printed: Nb2-11c cells): equally effective; PKC phosphorylation of a substrate (PKC): fails to affect the activity; PKC phosphorylation of a substrate (PKC; listed as NC1153): fails to affect activity; IL2 receptor expression [2]: failed to affect IL2 receptor expression; also recorded: unaffected; bioavailability [3]: ~12.5%; survival times of recipients surviving beyond 90 days (LEW kidney allografts; [4]): exceeding 200 days; treated recipients surviving beyond treatment of 90 days (LEW kidney allografts; [4]): 75%; MST (LEW kidney allografts; 649641P (NC1153) 240 mg/kg/day p.o. for 14 days): > 60 days
